Assay results: US9441024

Details: disulfide bond; 38-membered ring

| Substance | ring closure, yield after HPLC |
| --- | --- |
| S1C(diGlcNAc)-SRIF28 | 60% |
| S1C(disialo(aminoethylamide))-SRIF28 | 73% |
| S1-3C(disialo)-SRIF28 | 63% |
| C(disialo)-C12 linker-SRIF14 | 61% |
| S1-2C(asialo)-SRIF28 | 55% |
| S1-5C(disialo)-SRIF28 | 76% |
| S1-2C(disialo)-SRIF28 | 58% |
| C(disialo(aminoethylamide))/S1C(disialo)-SRIF28 | 58% |
| S1C(disialo)-SRIF28 | 59% |
| S1C(disialo).N19C(GlcNAc)-SRIF28 | 59% |
| S1C(disialo (hexadecylamide))-SRIF28 | 89% |
| S1-3C(asialo)-SRIF28 | 52% |
| S1-4C(disialo)-SRIF28 | 57% |
